Legend:
HIV [1] = settings: Partners PrEP study; oral; serodiscordant couples; ref Baeten et al., 2012; cited from earlier work
[2] = PK of orally administered TFV; format: in vivo
in vivo = experiment: in vivo; design: species or system non-humanized mice; settings: female, mouse, po, 61.5 mg/kg
HIV [3] = settings: hu-mice; oral administration at allometric dosing levels; ref Neff et al., 2010; cited from earlier work
[4] = female, BALB/c Rag1−/− or Rag2−/−γc−/− (humanized, Hu-HSC RAG-hu), mouse, intestinal tissue, po, 61.5 mg/kg
[5] = female, BALB/c Rag1−/− or Rag2−/−γc−/− (humanized, Hu-HSC RAG-hu), mouse, plasma, po, 61.5 mg/kg
[6] = female, BALB/c Rag1−/− or Rag2−/−γc−/− (humanized, Hu-HSC RAG-hu), mouse, rectal tissue, po, 61.5 mg/kg
[7] = female, BALB/c Rag1−/− or Rag2−/−γc−/− (humanized, Hu-HSC RAG-hu), mouse, vaginal tissue, po, 61.5 mg/kg

Q: What does the source list for `C[C@H](Cn1cnc2c(N)ncnc21)OCP(=O)(O)O` [TFV, Tenofovir]?
A: reduction in HIV-1 incidence (HIV [1]): 67%; AUC(0-t) ([2]; female, BALB/c Rag1−/− or Rag2−/−γc−/− (humanized, Hu-HSC RAG-hu), mouse, in vivo, po, 61.5 mg/kg): 11300 ng·h/mL; Cmax ([2]; female, BALB/c Rag1−/− or Rag2−/−γc−/− (humanized, Hu-HSC RAG-hu), mouse, in vivo, po, 61.5 mg/kg, Cmax (median)): 1990 ng/mL; Tmax [2, 4]: 2 h; half-life [2, 4]: 834 min; Tmax [2, 5]: 2 h; half-life [2, 5]: 1020 min; Tmax [2, 6]: 2 h; half-life [2, 6]: 810 min; Tmax [2, 7]: 2 h; half-life [2, 7]: 540 min; AUC(0-t) (in vivo): 17300 ng·h/mL; Tmax (in vivo): 8 h; Cmax (in vivo; Cmax (median)): 1550 ng/mL

Q: Which “AUC24h intestinal:rectal tissue ratio” value ([2]; hu-mice, TFV oral 61.5 mg/kg x 5 days) does the source give for `CC(Cn1cnc2c(N)ncnc21)OCP(=O)(O)OP(=O)(O)OP(=O)(O)O` (stereo in doubt) [TFV-DP, Tenofovir Diphosphate] here?
A: Its value is 2.45.

Q: For Maraviroc [MVC], which “protection against HIV vaginal challenge” value (HIV [3]) is on record?
A: The value was “fully protective”.

Source: article PMC4484790 (Virology, 2014)
